The values below come from PMC6129194 (Bioorganic & medicinal chemistry, 2018).

The conditions of data set [1]: cited from earlier work.
For data set [2] the following is noted: cited from earlier work. This is another data set of the same source.
In data set [3] the test system is MDCK-mdr1 cells. The data set can be described thus: MDCK-mdr1 monolayer permeability assay. The following applies: % transported apical to basal; 10 μM, 1 h, 37 °C, pH 7.4.

Take `CN1CCN(c2ncnc3c2nc(-c2ccccc2Cl)n3-c2ccc(Cl)cc2)CC1` [compound 5]: the “solubility in acidic media” value in data set [1] is given as “good”. For the same compound, the “human liver microsome stability” value in data set [2] is reported as “good”.
Take `CC(C)CS(=O)(=O)N1CCN(c2ncnc3c2nc(-c2ccccc2Cl)n3-c2ccc(Cl)cc2)CC1` [compound 15, 8-(2-Chlorophenyl)-9-(4-chlorophenyl)-6-{4-[(2-methylpropyl)sulfonyl]piperazin-1-yl}-9H-purine]: the “MDCK-mdr1 A to B” value in data set [3] is reported as under 1%.
Turning to `O=C(OCC1CCC1)N1CCN(c2ncnc3c2nc(-c2ccccc2Cl)n3-c2ccc(Cl)cc2)CC1` [compound 26, Cyclobutylmethyl 4-[8-(2-Chlorophenyl)-9-(4-chlorophenyl)-9H-purin-6-yl]piperazine-1-carboxylate], in data set [3], the “MDCK-mdr1 A to B” value is listed as under 1%.
For the compound `N=C(Nc1ccc(F)cc1)N1CCN(c2ncnc3c2nc(-c2ccccc2Cl)n3-c2ccc(Cl)cc2)CC1` [compound 28, 4-[8-(2-Chlorophenyl)-9-(4-chlorophenyl)-9H-purin-6-yl]-N-(4-fluorophenyl)piperazine-1-carboximidamide], the “MDCK-mdr1 A to B” value in data set [3] is reported as under 1%.
